Measurements as given in patent US20230174521A1, “NOVEL DIACYLGLYCERIDE O-ACYLTRANSFERASE 2 INHIBITORS” (Merck Sharp & Dohme LLC, priority 2020, published 2023).

Biological target: T1, human DGAT2 (hDGAT2) (Homo sapiens, UniProt Q96PD7)
T1 construct: made in house; host or cells: Sf-9 insect cells (baculovirus infection); membrane fraction
T1 sequence (Q96PD7 1-388): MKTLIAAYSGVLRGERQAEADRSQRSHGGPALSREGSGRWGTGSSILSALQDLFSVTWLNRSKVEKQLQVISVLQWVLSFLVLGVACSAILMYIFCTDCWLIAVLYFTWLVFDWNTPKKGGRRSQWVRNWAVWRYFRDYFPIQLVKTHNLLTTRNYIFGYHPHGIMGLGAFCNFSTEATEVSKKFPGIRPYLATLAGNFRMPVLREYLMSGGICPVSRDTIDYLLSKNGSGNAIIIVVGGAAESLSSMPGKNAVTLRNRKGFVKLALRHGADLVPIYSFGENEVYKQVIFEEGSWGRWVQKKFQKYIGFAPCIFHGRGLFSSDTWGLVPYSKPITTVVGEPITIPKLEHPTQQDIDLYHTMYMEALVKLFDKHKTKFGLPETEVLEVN
Test: DGAT2 enzymatic activity assay (LC/MS/MS detection of 13C18-triolein, Sf-9 membrane prep)
Type: biochemical
Settings: hDGAT2 Sf-9 membrane, 25 μM diolein, 5 μM 13C oleoyl-CoA, rt
Description: Sf-9 insect cells were maintained in Grace's insect cell culture medium with 10% heated-inactivated fetal bovine serum, 1% Pluronic F-68 and 0.14 μg/ml Kanamycine sulfate at 27° C. in a shaker incubator. After infection with untagged baculovirus expressing human DGAT2 (hDGAT2) at multiplicity of infection (MOI) 3 for 48 hours, cells were harvested. Cell pellets were suspended in buffer containing 10 mM Tris-HCl pH 7.5, 1 mM EDTA, 250 mM sucrose and Complete Protease Inhibitor Cocktail (Sigma Aldrich), and sonicated on ice. Cell debris were removed by centrifugation at 2000×g for 15 minutes. Membrane fractions were isolated by ultracentrifugation (100,000×g), resuspended in the same buffer, and frozen (−80° C.) for later use. The protein concentration was determined with the Pierce™ BCA Protein Assay Kit (Thermo Fisher Scientific). Expression of protein levels was analyzed by immunoblotting with rabbit anti-DGAT2 antibody (Abcam, ab102831) and donkey anti-rabbit IgG H&L Alexa Fluor® 647 (Abcam, ab150075) followed by detection using Typhoon FLA9000 (GE Healthcare).
LC/MS/MS analyses were performed using Thermal Fisher's LX4-TSQ Vantage system. This system consists of an Agilent binary high-performance liquid chromatography (HPLC) pumps and a TSQ Vantage triple quadrupole MS/MS instrument. For each sample, 2 μL samples from the top organic layer of in-plate liquid-liquid extraction were injected onto a Thermo Betabasic C4 column (2.1 mm×20 mm, 5 μm particle size). The samples were then eluted using the following conditions; mobile phase: Isopropanol: acetonitrile/10 mM ammonium formate=50/35/15 (v/v/v), flow rate: 0.8 mL/min, temperature: 25° C. Data was acquired in positive mode using a heated electrospray ionization (HESI) interface. The operational parameters for the TSQ Vantage MS/MS instrument were a spray voltage of 3000 V, capillary temperature of 280° C., vaporizer temperature 400° C., sheath gas 45 arbitrary unit, Aux gas 10 arbitrary units, S-lens 165 and collision gas 1.0 mTorr. […] (SRM) chromatograms of ^13C18-triolein (Q1: 920.8>Q3:621.3) and internal standard ^13C21-triolein (Q1: 923.8>Q3:617.3) were collected for 33 sec. The peak area was integrated by Xcalibur Quan software. The ratio between the ^13C18triolein generated in the reaction and spiked in internal standard ^13C21-triolein was used to generate percentage inhibition and IC50 values. Compound percentage inhibition was calculated by the following formula: Inhibition %=1−[(compound response−low control)/(high control−low control)]×100%. Potent compounds were titrated and IC50 were calculated by 4 parameter sigmoidal curve fitting formula.
DGAT2 activity was determined by measuring the amount of enzymatic product ^13C18-triolein (^13C-1,2,3-Tri(cis-9-octadecenoyl)glycerol) using the membrane prep mentioned above. The assay was carried out in ABgene 384-well assay plates in a final volume of 25 μL at rt. The assay mixture contained the following: assay buffer (100 mM Tris.Cl, pH 7.0, 20 mM MgCl2, 5% ethanol), 25 μM of diolein, 5 μM of ^13C oleoyl-CoA and 8 ng/μL of DGAT2 membrane.

| IC50 [nM] | Compound |
| --- | --- |
| 38 | CC(O)c1nn(-c2cccc(OC(F)F)c2)c2ncc(C(=O)NC3(C)CS(=O)(=O)C3)cc12 (single isomer, unassigned) [Example 38a, 1-(3-(difluoromethoxy)phenyl)-3-(l-hydroxyethyl)-N-(3-methyl-1,1-dioxidothietan-3-yl)-1H-pyrazolo[3,4-b]pyridine-5-carboxamide] |
| 705 | Cc1ncc(OC(F)F)cc1-n1nc(CC(C)(C)O)c2cc(C(=O)NC3(C)CS(=O)(=O)C3)cnc21 [Example 25, l-(5-(difluoromethoxy)-2-methylpyridin-3-yl)-3-(2-hydroxy-2-methylpropyl)-N-(3-methyl-1,1-dioxidothietan-3-yl)-1H-pyrazolo[3,4-b]pyridine-5-carboxamide] |
| 93 | CC(C)Oc1nn(-c2cc(OC(F)F)ccc2F)c2ncc(C(=O)NC3(C)CS(=O)(=O)C3)cc12 [Example 55, 1-(5-(difluoromethoxy)-2-fluorophenyl)-3-isopropoxy-N-(3-methyl-1,1-dioxidothietan-3-yl)-1H-pyrazolo[3,4-b]pyridine-5-carboxamide] |
| 14 | CC1(NC(=O)c2cnc3c(c2)c(C(C)(C)O)nn3-c2cc(OC(F)(F)F)ccc2F)CS(=O)(=O)C1 [Example 40, l-(2-fluoro-5-(trifluoromethoxy)phenyl)-3-(2-hydroxypropan-2-yl)-N-(3-methyl-1,1-dioxidothietan-3-yl)-1H-pyrazolo[3,4-b]pyridine-5-carboxamide] |
| 9.1 | CC1(NC(=O)c2cc(Cl)c3c(c2)c(C(C)(C)O)nn3-c2cccc(OC(F)F)c2)CS(=O)(=O)C1 [Example 35, 7-chloro-1-(3-(difluoromethoxy)phenyl)-3-(2-hydroxypropan-2-yl)-N-(3-methy1-l,1-dioxidothietan-3-yl)-1H-indazole-5-carboxamide] |
| 91 | CC1(NC(=O)c2cnc3c(c2)c(C(C)(C)O)nn3-c2cncc(OC(F)F)c2)CS(=O)(=O)C1 [Example 47, 1-(5-(difluoromethoxy)pyridin-3-yl)-3-(2-hydroxypropan-2-yl)-N-(3-methyl-1,1-dioxidothietan-3-yl)-1H-pyrazolo[3,4-b]pyridine-5-carboxamide] |
| 134 | Cc1cc2c(cc1C(=O)NC1(C)CS(=O)(=O)C1)c(C(C)C)nn2-c1cccc(OC(F)F)c1 [Example 19] |
| 25 | CC1(NC(=O)c2cnc3c(c2)c(C(C)(C)O)nn3-c2cc(OC(F)F)ccc2F)CS(=O)(=O)C1 [Example 41, l-(5-(difluoromethoxy)-2-fluorophenyl)-3-(2-hydroxypropan-2-yl)-N-(3-methyl-1,1-dioxidothietan-3-yl)-1H-pyrazolo[3,4-b]pyridine-5-carboxamide] |
| 56 | CC(C)c1nn(-c2cncc(OC(F)F)c2)c2ccc(C(=O)NC3(C)CS(=O)(=O)C3)cc12 [Example 18] |
| 25 | CC(C)c1nn(-c2cncc(OC(F)F)c2)c2ncc(C(=O)NC3(C)CS(=O)(=O)C3)cc12 [Example 17] |
| 107 | CC1(NC(=O)c2cnc3c(c2)c(C(C)(C)O)nn3-c2cccc(OC(F)(F)F)c2)CS(=O)(=O)C1 [Example 42, 3-(2-hydroxypropan-2-yl)-N-(3-methyl-1,1-dioxidothietan-3-yl)-1-(3-(trifluoromethoxy)phenyl)-1H-pyrazolo[3,4-b]pyridine-5-carboxamide] |

Second part, the molecule before the results:

| Compound | IC50 [nM] |
| --- | --- |
| C[C@]1(NC(=O)c2ccc3c(c2)c(S(C)(=O)=O)nn3-c2cccc(OC(F)F)c2)CCS(=O)(=O)C1 [Example 53, (S)-1-(3-(difluoromethoxy)phenyl)-N-(3-methyl-1,1-dioxidotetrahydrothiophen-3-yl)-3-(methylsulfonyl)-1H-indazole-5-carboxamide] | 543 |
| COc1ccc(-n2nc(NCCc3ccccc3)c3cc(C(=O)NCCCN(C)C)ccc32)cc1 [Example 52, N-(3-(dimethylamino)propyl)-1-(4-methoxyphenyl)-3-(phenethylamino)-1H-indazole-5-carboxamide] | 4320 |
| Cn1ccc(-c2nn(-c3cccc(OC(F)F)c3)c3ccc(C(=O)NC4(C)CS(=O)(=O)C4)cc23)n1 [Example 2, 1-(3-(difluoromethoxy)phenyl)-N-(3-methyl-1,1-dioxo-thietan-3-yl)-3-(l-methylpyrazol-3-yl)indazole-5-carboxamide] | 18 |
| Cc1c(C(=O)NC2(C)CS(=O)(=O)C2)ccc2c1c(C(C)C)nn2-c1cccc(OC(F)F)c1 [Example 20] | 5 |
| C[C@]1(NC(=O)c2ccc3c(c2)c(N2CCOCC2)nn3-c2cccc(OC(F)F)c2)CCS(=O)(=O)C1 [Example 48, (S)-1-[3-(difluoromethoxy)phenyl]-N-(3-methyl-1,1-dioxo-thiolan-3-yl)-3-morpholino-indazole-5-carboxamide] | 375 |
| CC1(NC(=O)c2ccc3c(c2)c(C(O)C(F)(F)F)nn3-c2cccc(OC(F)F)c2)CS(=O)(=O)C1 (single isomer, unassigned) [Example 30b, 1-[3-(difluoromethoxy)phenyl]-N-(3-methyl-1,1-dioxo-thietan-3-yl)-3-(2,2,2-trifluoro-1-hydroxy-ethyl)indazole-5-carboxamide] | 113 |
| CC1(NC(=O)c2ccc3c(c2)c(O)nn3-c2cccc(OC(F)F)c2)CS(=O)(=O)C1 [Example 56] | > 10000 |
| CC1(NC(=O)c2ccc3c(c2)c(C(O)C(F)(F)F)nn3-c2cccc(OC(F)F)c2)CS(=O)(=O)C1 (single isomer, unassigned) [Example 30a, 1-[3-(difluoromethoxy)phenyl]-N-(3-methyl-1,1-dioxo-thietan-3-yl)-3-(2,2,2-trifluoro-1-hydroxy-ethyl)indazole-5-carboxamide] | 84 |
| CC(O)c1nn(-c2cccc(OC(F)F)c2)c2ccc(C(=O)N[C@@]3(C)CCS(=O)(=O)C3)cc12 (stereo partly drawn) [Example 34, 1-(3-(difluoromethoxy)phenyl)-3-(l-hydroxyethyl)-N-((S)-3-methyl-1,1-dioxidotetrahydrothiophen-3-yl)-1H-indazole-5-carboxamide] | 83 |
| CC1(NC(=O)c2ccc3c(ccn3-c3cccc(OC(F)F)c3)c2)CS(=O)(=O)C1 [Example 8, 1-(3-(difluoromethoxy)phenyl)-N-(3-methyl-1,1-dioxidothietan-3-yl)-1H-indole-5-carboxamide] | 134 |
| CC1(NC(=O)c2ccc3c(c2)c(C(O)C(F)(F)F)nn3-c2cccc(OC(F)F)c2)CS(=O)(=O)C1 (racemic) [Example 30, 1-(3-(difluoromethoxy)phenyl)-N-(3-methyl-1,1-dioxidothietan-3-yl)-3-(2,2,2-trifluoro-1-hydroxyethyl)-1H-indazole-5-carboxamide] | 47 |
| CC1(NC(=O)c2ccc3c(c2)c(C(O)C2CC2)nn3-c2cccc(OC(F)F)c2)CS(=O)(=O)C1 (single isomer, unassigned) [Example 29b, 3-[cyclopropyl(hydroxy)methyl] - 1-[3-(difluoromethoxy)phenyl]-N-(3-methyl-1,1-dioxo-thietan-3-yl)indazole-5-carboxamide] | 205 |
| C[C@]1(NC(=O)c2ccc3c(c2)c(N2CCC[C@H]2C(=O)O)nn3-c2cccc(OC(F)F)c2)CCS(=O)(=O)C1 [Example 49, (2S)-1-[1-[3-(difluoromethoxy)phenyl]-5-[[(3S)-3-methyl-1,1-dioxo-thiolan-3-yl]carbamoyl]indazol-3-yl]pyrrolidine-2-carboxylic acid] | 351 |
